Test results as given in US20040210958A1, “A Novel Culture Method for Corn Transformation” (MONSANTO TECHNOLOGY LLC, priority 2003, published 2004).

System: nodal section explants from 7-day-old seedlings of corn line 106
Test: Effect of seed germination medium on callus induction from nodal section explants (36-media screen)
Format: cell-based
Experimental: This example described experiments to determine the best combination of auxins and cytokinins in the germination tissue culture media. To improve the efficiency of callus induction from 106 seedlings, 36 different germination media were evaluated. Those media were MS-based with different combinations of picloram (0, 0.1, 1, 2.2, 5 or 10 mg/L) and BAP (0, 0.1, 1, 3, 5 or 10 mg/L) concentrations.

Compound | callus induction (% embryogenic calli per node) (germination medium picloram 0.10 mg/L, BAP 0.00 mg/L) | callus induction (% embryogenic calli per node) (germination medium picloram 1.00 mg/L, BAP 0.00 mg/L) | callus induction (% embryogenic calli per node) (germination medium picloram 2.20 mg/L, BAP 0.00 mg/L) | callus induction (% embryogenic calli per node) (germination medium picloram 5.00 mg/L, BAP 0.00 mg/L) | callus induction (% embryogenic calli per node) (germination medium picloram 10.00 mg/L, BAP 0.00 mg/L) | callus induction (% embryogenic calli per node) (germination medium picloram 0.00 mg/L, BAP 0.10 mg/L) | callus induction (% embryogenic calli per node) (germination medium picloram 0.00 mg/L, BAP 1.00 mg/L) | callus induction (% embryogenic calli per node) (germination medium picloram 0.00 mg/L, BAP 3.00 mg/L) | callus induction (% embryogenic calli per node) (germination medium picloram 0.00 mg/L, BAP 5.00 mg/L) | callus induction (% embryogenic calli per node) (germination medium picloram 0.00 mg/L, BAP 10.00 mg/L)
Nc1c(Cl)c(Cl)nc(C(=O)O)c1Cl [Picloram, 4-amino-3,5,6-trichloropicolinic acid] | 0.00% | 9.52% | 9.52% | 19.05% | 4.76% | – | – | – | – | –
c1ccc(CNc2ncnc3nc[nH]c23)cc1 [BAP, 6-benzylaminopurine] | – | – | – | – | – | 4.76% | 0.00% | 14.29% | 0.00% | 0.00%
